{"source": "patent US20170246129A1", "about": "“COMPOSITION USING GUANIDINE COMPOUND FOR SUPPRESSING TRANSFORMING GROWTH FACTOR (TGF)-beta” (Peking University Third Hospital, priority 2016, published 2017)", "key": {"[1]": {"test_system": "TGFβ1 induced phosphorylated Smad3 (p-Smad3)", "test": "Western blotting of TGFβ1 induced phosphorylated Smad3 in 3T3 cells", "type": "cell-based, mouse", "settings": "compound 1 mmol/L premixed with TGF-β1 (5 ng/mL) for 2 h, 3T3 cells treated 30 min, FIG. 9", "experimental": "2: Moroxydinehydrochloride (dissovled in ddH2O, 1 mmol/L); 3: Phenylbiguanide (dissolved in DMSO, 1 mmoL/L); 4: 1-(2,3-Dichlorophenyl) biguanide hydrochloride (dissolved in DMSO, 1 mmoL/L); 5: 1,3-Di(o-tolyl)guanidine (dissolved in DMSO, 1mmoL/L); 6: Buformin hydrochloride (dissolved in EtOH, 1 mmol/L). These compounds and TGF-β1 (5 ng/mL) were premixed for 2 h separately and then 3T3 cells were treated with the mixture for 30 min prior to sample collection. […] Bicinchoninic acid reagents were used to measure the protein concentration. Equal amounts of proteins were separated by SDS-PAGE and transferred to polyvinylidene difluoride membranes. The blots were immunoreacted with primary antibodies and secondary antibodies conjugated with horseradish peroxidase. […] GAPDH antibodies were purchased from Santa Cruz Biotechnology (Santa Cruz, Calif., USA). Protein bands were visualized by enhanced chemiluminescence detection and the intensity was quantified by use of Image-J software."}, "TGF-β1/TβRII": {"target": "T1, TGF-β1/TβRII (Homo sapiens, UniProt P01137)", "T1 construct": "expressed in transfected cells; host or cells: HeLa", "T1 sequence (P01137 279-390 limits assumed)": "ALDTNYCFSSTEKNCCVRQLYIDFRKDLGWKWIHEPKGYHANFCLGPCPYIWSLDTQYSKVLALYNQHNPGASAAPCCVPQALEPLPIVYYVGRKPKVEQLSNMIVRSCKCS", "test": "AFM single-molecule force spectroscopy of TGF-β1-TβRII binding on HeLa cells", "experimental": "The present invention investigated the binding force and the binding probability between TGF-β1 and TβRII on live cells using AFM-based single-molecule force spectroscopy. TGF-β1-modified AFM tips (type: NP-10, Bruker, Santa Barbara, Calif., USA) were prepared as followed. The spring constants of the tips, calibrated by the thermal fluctuation method, were in the range of 0.025-0.045 N/m. The tips were first cleaned and hydroxized through the treatment with chloroform, HF acid, alkaline solution (NH4OH/H2O2/H2O) 1:1:5, v/v) and piranha solution (98% H2SO4/H2O2) 7:3, v/v), respectively, to generate Si-OH on the wafers. Then they were transferred to a solution of 1.0% (v/v) MPTMS in toluene, incubated for 2 h at room temperature, and rinsed thoroughly with toluene to be modified with —SH groups. […]\nHela cells were transfected with the TβRII-GFP plasmid for 24 h, and the force measurements were performed on a PicoSPM II system with a PicoScan 3000 controller and a large scanner (Agilent, Santa Clara, Calif., USA). The AFM scanner was mounted on an inverted fluorescence microscope (Olympus IX71, Japan). […] All of the force curves were measured with the contact mode at room temperature using a soft cantilever (0.06 N m-1). […] The force curves were recorded using PicoScan 5 software (Molecular Imaging, Tempe, Ariz., USA) and analyzed using a program in MATLAB (MathWorks Corp., Natick, Mass., USA.)."}, "TβRII-GFP on HeLa cells": {"test_system": "TβRII-GFP on HeLa cells", "test": "Single-molecule fluorescence imaging (TIRFM) of TGF-β1-induced TβRII dimerization", "type": "cell-based", "settings": "TGF-β1 10 ng/mL, 15 min at 37° C., FIG. 2D", "experimental": "In the previous study, individual green fluorescent protein (GFP)-tagged TβRII molecules were imaged on the cell membrane by total internal reflection fluorescence microscopy (TIRFM) to study the receptor activation.\nSingle molecule fluorescence imaging was performed with objective-type total internal reflection fluorescence microscopy (TIRFM) using an inverted Olympus IX71 microscope equipped with a total internal reflective fluorescence illuminator'a, 100X/1.45NA Plan Apochromat TIR objective and an intensified CCD (ICCD) camera (Pentamax EEV 512×512 FT, Roper Scientific). Hela cells were transfected with TβRII-GFP plasmid for 4 h, washed, and then imaged in the serum-free and phenol red-free MEM under the fluorescence microscopy. GFP was excited at 488-nm by an argon laser (Melles Griot, Carlsbad, Calif.). Movies of 200-300 frames were acquired for each sample at a frame rate of 10 Hz. […] To analyze single-molecule fluorescence intensity and the photobleaching steps, regions of interest for bleaching analysis were selected as followed. Firstly, the background fluorescence was subtracted from the movie acquired from the fixed cells using rolling ball method in Image J software (National Institutes of Health). […] Finally, time courses and the integrated fluorescence intensity of regions which were selected according to the method above were extracted for photobleaching analysis. […]"}, "[2]": {"target": "T2, [125I]-TGFβ1 binding to its receptor in 3T3 mouse fibroblasts (Homo sapiens, UniProt P01137)", "T2 construct": "endogenous in cells; host or cells: 3T3 mouse fibroblasts", "T2 sequence (P01137 279-390 limits assumed)": "as above", "test": "[125I]-TGFβ1 binding assay", "settings": "printed as log[IC50], 50 pM [125I]-TGFβ1, 4 h at 4° C., four independent experiments, read-out: log[IC50] of [125I]-TGFβ1 binding inhibition (converted)", "experimental": "3T3 mouse fibroblasts were seeded in a 24 well-plate and cultured in DMEM supplemented with 10% FBS and antibiotics (100 U/mL penicillin-streptomycin). […] After 4 h at 4° C., the medium was removed and cells were washed five times with ice-cold binding buffer (50 mM HEPES, 128 mM NaCl, 5 mM KCl, 5 mM MgSO4, and 1.2 mM CaCl2). The cells were then solubilized using binding buffer containing 1% Triton X-100 and the radioactivity was measured. Non-specific binding was determined in the presence of an excess (10 nM) of unlabeled TGFβ1."}, "[3]": {"settings": "persons receiving the drug therapeutically, cited from earlier work"}, "TGF-β1": {"target": "TGF-β1 (Homo sapiens, UniProt P01137)", "sequence (P01137 279-390 limits assumed)": "as above", "test": "Surface plasmon resonance (SPR)-based assay", "settings": "Biacore T200, 25° C., TGF-β1 on CM5 chip, steady-state single site binding model", "experimental": "Experiments were performed at 25° C. using a Biacore T200 and the data were analyzed using Biacore T200 evaluation software 2.0 (GE Healthcare, Stockholm, Sweden). […] The steady-state values were calculated from the sensorgrams and plotted against the concentrations. The data were fit to a single site binding model to calculate the KD."}}, "note": "Counter-ions that a name gives are not always drawn. Like-named read-outs stand apart in the source and are kept apart here.", "data": [{"smiles": "Cc1ccccc1NC(=N)Nc1ccccc1C", "note": "[1,3-Di(o-tolyl)guanidine]", "values": [{"measurement": "effect on p-Smad3 induced by TGFβ1", "setting": "[1]", "value": "attenuate"}]}, {"smiles": "Cl.N=C(NN)NN", "note": "[1,3-Diaminoguanidine monohydrochloride]", "values": [{"measurement": "effect on p-Smad3 induced by TGFβ1", "setting": "[1]", "value": "no effect"}]}, {"smiles": "Cl.N=C(N)NC(=N)Nc1cccc(Cl)c1Cl", "note": "[1-(2,3-Dichlorophenyl) biguanide hydrochloride]", "values": [{"measurement": "effect on p-Smad3 induced by TGFβ1", "setting": "[1]", "value": "no effect"}]}, {"smiles": "CCCCNC(=N)NC(=N)N", "note": "[buformin hydrochloride, Buformin hydrochloride]", "values": [{"measurement": "effect on p-Smad3 induced by TGFβ1", "setting": "[1]", "value": "attenuate"}]}, {"smiles": "CN(C)C(=N)N=C(N)N", "note": "[metformin, metformin hydrochloride]", "values": [{"measurement": "binding force of TGF-β1 with TβRII", "setting": "TGF-β1/TβRII; 50 μM, control 49.5±1.3, P>0.05", "value": "49.3±1.4", "unit": "pN"}, {"measurement": "binding probability of TGF-β1 and TβRII", "setting": "TGF-β1/TβRII; metformin 50 μM, control 21.7±3.5%", "value": "9.9±1.2", "unit": "%"}, {"measurement": "percentage of TβRII dimers induced by TGF-β1", "setting": "TβRII-GFP on HeLa cells", "value": "inhibited the percentage of dimers induced by TGF-β1 in a dose-dependent manner"}, {"measurement": "IC50", "setting": "[2]", "value": 69.2, "unit": "µM"}, {"measurement": "Blood or plasma concentrations", "setting": "[3]", "value": "1 to 4", "unit": "µg/mL"}, {"measurement": "Blood or plasma concentrations", "setting": "[3]; conversion of μg/mL", "value": "6 to 24", "unit": "µM"}, {"measurement": "Kd", "setting": "TGF-β1", "value": 15.9, "unit": "µM"}]}, {"smiles": "Cl.N=C(N=C(N)N)N1CCOCC1", "note": "[moroxydinehydrochloride]", "values": [{"measurement": "effect on p-Smad3 induced by TGFβ1", "setting": "[1]", "value": "no effect"}]}]}
